Data from article PMC5780470, “Copper(I)-binding properties of de-coppering drugs for the treatment of Wilson disease. α-Lipoic acid as a potential anti-copper agent” (Scientific Reports, 2018).

Target: MT2A (MT2, Cu10MT, Cu10MT2) (Oryctolagus cuniculus, UniProt P18055)
Experiment: ESI-MS demetallation of Cu10MT, Hill fit
Type: binding
Details: C50 for Cu(I) extraction from 3 uM Cu10MT, not a protein affinity; 10 mM DTT, 20 mM ammonium acetate, pH 7.3, 25 °C; all CuMT-TTM complexes counted; no ternary complexes stated; read-out: C50 (mM) for Cu1Cox17
From the text: ESI-MS demetallation of Cu10MT, Hill fit on MT2A (MT2, Cu10MT, Cu10MT2)

Sequence of MT2A (MT2, Cu10MT, Cu10MT2) (P18055 whole entry): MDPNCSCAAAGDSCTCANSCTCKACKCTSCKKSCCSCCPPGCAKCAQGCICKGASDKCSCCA

IC50: 0.772 ± 0.087 mM
SMILES: CCN(CC)C(=S)S [DETC, diethyl dithiocarbamate]
